The values that follow come from patent publication US8921370B2, “Bicyclo[3.2.1]octyl amide derivatives and uses of same” (H. Lundbeck A/S, priority 2010, dated 2014).

SMILES strings stand for the structures.

For experiment [1], the target named is T1, hmGluR5 (Homo sapiens (Human), UniProt P41594). The experiment in a line: Radioligand binding assay (MPEP binding site). The settings on record: radioligand binding to the MPEP site, 5 nM radioligand; Ki by Cheng-Prusoff. On the procedure: Binding assays were performed as described in [J. A. O'Brien et al. Mol. Pharmacol., 2003, 64, 731-740] with slight modifications, including that a radioligand that binds to the […] (MPEP) binding site was used in place of [^3H]-MPEP. Briefly, after thawing, the membrane homogenates were resuspended in 50 mM Tris-HCl and 0.9% NaCl binding buffer at pH 7.4 to a final assay concentration of 20 μg is protein/well for radioligand filtration binding. Incubations included 5 nM radioligand, membranes and either buffer or varying concentrations of compound. Samples were incubated for 60 min at room temperature with shaking. Non-specific binding was defined with 10 μM cold MPEP when using the radioligand. After incubation, samples were filtered over a GF/C filter (presoaked in 0.25% polyethyleneimine (PEI)) and then washed 4 times using a Tomtec® Harvester 96® Mach III cell harvester (Tomtec, Hamden, Conn.) with 0.5 mL ice-cold 50 mM Tris-HCl (pH 7.4). IC50 values were derived from the inhibition curve and Ki values were calculated according to the Cheng and Prusoff equation of Ki=IC50/(1+[L]/Kd) described in [Y. Cheng and W. H. Prusoff Biochem. Pharmacol. 1973, 22, 3099-3108] where [L] is the concentration of radioligand and Kd is its dissociation constant at the receptor, derived from the saturation isotherm. The Ki values of compounds of the invention were <10 μM.
T1 sequence (P41594 21-1212): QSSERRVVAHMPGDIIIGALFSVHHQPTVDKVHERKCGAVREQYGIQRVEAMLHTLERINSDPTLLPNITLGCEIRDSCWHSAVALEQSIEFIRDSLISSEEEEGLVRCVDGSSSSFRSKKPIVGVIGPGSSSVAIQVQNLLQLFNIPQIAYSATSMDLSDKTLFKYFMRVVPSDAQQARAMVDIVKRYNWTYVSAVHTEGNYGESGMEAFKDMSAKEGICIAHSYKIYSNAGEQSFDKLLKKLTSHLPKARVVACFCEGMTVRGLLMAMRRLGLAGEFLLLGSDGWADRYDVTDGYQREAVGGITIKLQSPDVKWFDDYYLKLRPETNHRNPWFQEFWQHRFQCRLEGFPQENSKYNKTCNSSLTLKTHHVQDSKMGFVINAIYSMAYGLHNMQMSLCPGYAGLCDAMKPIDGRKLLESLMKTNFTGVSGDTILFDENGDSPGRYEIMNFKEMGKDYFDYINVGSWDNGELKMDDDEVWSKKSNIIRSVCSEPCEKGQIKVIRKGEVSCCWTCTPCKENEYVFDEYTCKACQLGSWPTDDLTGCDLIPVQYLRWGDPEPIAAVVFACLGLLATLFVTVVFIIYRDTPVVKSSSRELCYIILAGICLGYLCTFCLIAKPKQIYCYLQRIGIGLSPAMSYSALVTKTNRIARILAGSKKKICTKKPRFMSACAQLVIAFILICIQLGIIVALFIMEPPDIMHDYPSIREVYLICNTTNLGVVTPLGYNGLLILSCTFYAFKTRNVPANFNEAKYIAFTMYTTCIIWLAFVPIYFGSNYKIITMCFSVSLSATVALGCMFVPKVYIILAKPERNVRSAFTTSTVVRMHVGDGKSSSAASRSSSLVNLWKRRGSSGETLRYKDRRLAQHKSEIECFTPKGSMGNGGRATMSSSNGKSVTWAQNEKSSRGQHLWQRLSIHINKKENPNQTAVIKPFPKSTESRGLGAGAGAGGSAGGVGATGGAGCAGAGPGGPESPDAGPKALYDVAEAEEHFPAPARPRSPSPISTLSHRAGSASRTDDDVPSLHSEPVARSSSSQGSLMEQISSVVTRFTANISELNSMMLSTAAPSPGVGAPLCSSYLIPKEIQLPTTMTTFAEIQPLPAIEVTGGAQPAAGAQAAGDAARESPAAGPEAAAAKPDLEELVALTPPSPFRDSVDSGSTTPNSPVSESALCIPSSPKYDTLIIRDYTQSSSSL

Experiment [2] addresses T1, hmGluR5. The experiment in a line: Calcium mobilization assay (FLIPR), negative allosteric activity, EC80 glutamate. It counts as cell-based. Particulars: HEK 293 cells expressing hmGluR5; for Emax: HEK293, FLIPR maximum inhibition of EC80 glutamate response, read-out: hmGlu5 FLIPR % inhibition; for IC50: inhibition of EC80 glutamate response. As to the method:
The cDNA for rat metabotropic glutamate receptor 5 (rmGluR5) and the cDNA for human metabotropic glutamate receptor 5 […] gifts from S. Nakanishi (Kyoto University, Kyoto, Japan). […] Twenty-four hours prior to assay, cells were seeded into 384-well black wall microtiter plates coated with poly-D-lysine. […] After excess dye was discarded, cells were washed in assay buffer and layered with a final volume equal to 30 μL/well. […] Laser excitation energy was adjusted so that basal fluorescence readings were approximately 10,000 relative fluorescent units. […] Basal readings derived from negative controls were subtracted from all samples. Maximum change in fluorescence was calculated for each well. Concentration-response curves derived from the maximum change in fluorescence were analyzed by nonlinear regression (Hill equation). A negative modulator can be identified from these concentration-response curves if a compound produces a concentration dependent inhibition of the EC80 glutamate response.

`Cc1cccc(NC(=O)C23CCCC(NC(=O)c4nc(C)cs4)(CC2)C3)n1` (stereo not drawn) [Example 171, 4-methyl-N-(5-(6-methylpyridin-2-ylcarbamoyl)bicyclo[3.2.1]octan-1-yl)thiazole-2-carboxamide] showed a Ki at hmGluR5 [1] of 65 nM. At hmGluR5 [2], the Emax was determined as 94% and the IC50 is 4.7 nM.

At hmGluR5 [1], `Cc1cncc(C(=O)N[C@@]23CCC[C@@](NC(=O)c4cccc(F)c4)(CC2)C3)n1` [Example 161, 6-Methyl-pyrazine-2-carboxylic acid [(1S,5R)-5-(3-fluoro-benzoylamino)-bicyclo[3.2.1]oct-1-yl]-amide] registered a Ki of 1200 nM. Further, on hmGluR5 [2], the Emax came to 90% and the IC50 is 134 nM.

`Cc1cncc(C(=O)NC23CCCC(NC(=O)c4cccc(F)c4)(CC2)C3)n1` (stereo not drawn) [Example 6, 6-Methyl-pyrazine-2-carboxylic acid [5-(3-fluoro-benzoylamino)-bicyclo[3.2.1]oct-1-yl]-amide] came in with a Ki on hmGluR5 [1] of 78 nM. Further, at hmGluR5 [2], the Emax is 92% and the IC50 was found to be 9 nM.

Consider `Cc1cccc(C(=O)NC23CCCC(C(=O)Nc4ccnc(C)n4)(CC2)C3)n1` (stereo not drawn) [Example 178, 6-methyl-N-(5-(2-methylpyrimidin-4-ylcarbamoyl)bicyclo[3.2.1]octan-1-yl)picolinamide], for which the Ki at hmGluR5 [1] amounted to 370 nM. For the same compound, on hmGluR5 [2], the Emax amounted to 90% and the IC50 was determined as 38 nM.

As for `Cc1cccc(C(=O)NC23CCCC(NC(=O)c4cccc(Cl)c4)(CC2)C3)n1` (stereo not drawn) [Example 2, N-(5-(3-chlorobenzamido)bicyclo[3.2.1]octan-1-yl)-6-methylpicolinamide], the affinity at hmGluR5 [1] corresponds to a Ki of 27 nM. For the same compound, on hmGluR5 [2], the Emax worked out at 89% and the IC50 is 3.7 nM.

In turn, `Cc1cccc(C(=O)N[C@@]23CCC[C@@](NC(=O)c4ccccn4)(CC2)C3)n1` [Example 126, 6-Methyl-pyridine-2-carboxylic acid {(1S,5R)-5-[(pyridine-2-carbonyl)-amino]-bicyclo[3.2.1]oct-1-yl}-amide] returned a Ki at hmGluR5 [1] of 39 nM. Further, on hmGluR5 [2], the Emax was 86% and the 50% inhibitory concentration (IC50) was determined as 0.32 nM.

Regarding `Cc1cccc(C(=O)NC23CCCC(NC(=O)c4ccncc4)(CC2)C3)c1` (stereo not drawn) [Example 36, N-(5-(3-methylbenzamido)bicyclo[3.2.1]octan-1-yl)isonicotinamide], the Ki at hmGluR5 [1] came to 280 nM. On hmGluR5 [2], the Emax turned out to be 87% and the IC50 is 35 nM.

`Cc1cccc(NC(=O)C23CCCC(NC(=O)c4cccc(Cl)c4)(CC2)C3)n1` (stereo not drawn) [Example 176, 5-(3-chlorobenzamido)-N-(6-methylpyridin-2-yl)bicyclo[3.2.1]octane-1-carboxamide] came in with a Ki on hmGluR5 [1] of 500 nM. In addition, on hmGluR5 [2], the Emax stood at 91% and the IC50 stood at 33 nM.

Consider `Cc1cncc(C(=O)N[C@]23CCC[C@](NC(=O)c4cccc(F)c4)(CC2)C3)n1` [Example 160, 6-Methyl-pyrazine-2-carboxylic acid [(1R,5S)-5-(3-fluoro-benzoylamino)-bicyclo[3.2.1]oct-1-yl]-amide], for which the affinity at hmGluR5 [1] corresponds to a Ki of 35 nM. On hmGluR5 [2], the Emax amounted to 89% and the IC50 turned out to be 3.9 nM.

`Cc1ncc(C(=O)NC23CCCC(NC(=O)c4cccc(Cl)c4)(CC2)C3)s1` (stereo not drawn) [Example 15, N-(5-(3-chlorobenzamido)bicyclo[3.2.1]octan-1-yl)-2-methylthiazole-5-carboxamide]: affinity on hmGluR5 [1] was put at a Ki of 340 nM. Besides, at hmGluR5 [2], the Emax was 88% and the IC50 turned out to be 26 nM.

The term Ki denotes a measure of affinity in units of concentration, obtained from inhibition or displacement. Lower therefore signals a stronger hold on the target. As a reminder, the IC50 is the midpoint of a concentration-inhibition curve.
